{
  "source": "patent US12077503B2",
  "about": "“Substituted cyclic amides and their use as herbicides” (FMC CORPORATION, priority 2015, dated 2024)",
  "experiment_in_all_cases": "Test A postemergence",
  "assay_type_in_all_cases": "in vivo",
  "key": {"Kochia (Kochia scoparia)": {"system": "Kochia (Kochia scoparia)", "conditions": "Bassia scoparia, post-emergence, 240 h; for pest or weed control at 125 g/ha: 125 g ai/ha; for pest or weed control at 500 g/ha: 500 g ai/ha, visual injury, 0 to 100 scale (0 no effect, 100 complete control)", "method_in_brief": "(§1)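 In a loam soil and sand blend, planted seeds got a preemergence directed soil spray, and young plants at the one- to two-leaf stage, 2–10 cm high, got a postemergence application; ~10 d greenhouse hold; injury rated visually, 0 = none, 100 = complete control.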"}, "[1]": {"system": "wheat (Triticum aestivum)", "conditions": "Triticum aestivum, post-emergence, 240 h; for plant injury at 125 g/ha: 125 g ai/ha", "method_in_brief": "as §1"}, "[2]": {"system": "giant foxtail (Setaria faberii)", "conditions": "Setaria faberi, post-emergence, 240 h; for pest or weed control at 125 g/ha: 125 g ai/ha; for pest or weed control at 500 g/ha: 500 g ai/ha, visual injury, 0 to 100 scale (0 no effect, 100 complete control)", "method_in_brief": "as §1"}, "[3]": {"system": "barnyardgrass (Echinochloa crus-galli)", "conditions": "Echinochloa crus-galli, post-emergence, 240 h; for pest or weed control at 125 g/ha: 125 g ai/ha; for pest or weed control at 500 g/ha: 500 g ai/ha, visual injury, 0 to 100 scale (0 no effect, 100 complete control)", "method_in_brief": "as §1"}, "[4]": {"system": "Galium (catchweed bedstraw, Galium aparine)", "conditions": "Galium, post-emergence, 240 h; for pest or weed control at 125 g/ha: 125 g ai/ha; for pest or weed control at 500 g/ha: 500 g ai/ha, visual injury, 0 to 100 scale (0 no effect, 100 complete control)", "method_in_brief": "as §1"}, "[5]": {"conditions": "postemergence, visual injury rating after approximately 10 d, read-out: Kochia plant response rating (0 to 100 scale, 0 no effect, 100 complete control)"}, "[6]": {"conditions": "postemergence, visual injury rating after approximately 10 d, read-out: Wheat plant response rating (0 to 100 scale, 0 no effect, 100 complete control)"}, "[7]": {"conditions": "postemergence, visual injury rating after approximately 10 d, read-out: Foxtail, Giant plant response rating (0 to 100 scale, 0 no effect, 100 complete control)"}, "[8]": {"conditions": "postemergence, visual injury rating after approximately 10 d, read-out: Barnyardgrass plant response rating (0 to 100 scale, 0 no effect, 100 complete control)"}, "[9]": {"conditions": "postemergence, visual injury rating after approximately 10 d, read-out: Galium plant response rating (0 to 100 scale, 0 no effect, 100 complete control)"}, "[10]": {"conditions": "postemergence, visual injury on 0 to 100 scale (0 no effect, 100 complete control), approx. 10 d, read-out: Kochia plant response rating"}, "[11]": {"conditions": "postemergence, approx. 10 d, read-out: Plant response rating, Kochia"}, "[12]": {"conditions": "postemergence, visual injury on 0 to 100 scale (0 no effect, 100 complete control), approx. 10 d, read-out: Wheat plant response rating"}, "[13]": {"conditions": "postemergence, visual injury on 0 to 100 scale (0 no effect, 100 complete control), approx. 10 d, read-out: Foxtail, Giant plant response rating"}, "[14]": {"conditions": "postemergence, approx. 10 d, read-out: Plant response rating, Foxtail, Giant"}, "[15]": {"conditions": "postemergence, approx. 10 d, read-out: Plant response rating, Barnyardgrass"}, "[16]": {"conditions": "postemergence, visual injury on 0 to 100 scale (0 no effect, 100 complete control), approx. 10 d, read-out: Galium plant response rating"}, "[17]": {"conditions": "postemergence, approx. 10 d, read-out: Plant response rating, Galium"}, "[18]": {"conditions": "Postemergence, visual injury after approximately 10 d, 0 to 100 scale where 0 is no effect and 100 is complete control, read-out: Plant response rating, Barnyardgrass"}, "[19]": {"conditions": "Postemergence, visual injury after approximately 10 d, 0 to 100 scale where 0 is no effect and 100 is complete control, read-out: Plant response rating, Kochia"}, "[20]": {"conditions": "Postemergence, visual injury after approximately 10 d, 0 to 100 scale where 0 is no effect and 100 is complete control, read-out: Plant response rating, Wheat"}, "[21]": {"conditions": "Postemergence, visual injury after approximately 10 d, 0 to 100 scale where 0 is no effect and 100 is complete control, read-out: Plant response rating, Foxtail, Giant"}, "[22]": {"conditions": "Postemergence, visual injury after approximately 10 d, 0 to 100 scale where 0 is no effect and 100 is complete control, read-out: Plant response rating, Galium"}},
  "note": "Where two headings read alike, the source gives them in different places.",
  "data": [
    {"smiles": "O=C1NC[C@H](c2ccc3c(c2)CCCO3)[C@H]1C(=O)Nc1ccccc1F", "note": "[Compound 885]", "values": [
      {"measurement": "pest or weed control at 125 g/ha", "setting": "Kochia (Kochia scoparia); [5]", "value": 0, "unit": "%"},
      {"measurement": "plant injury at 125 g/ha", "setting": "[1]; [6]", "value": 0, "unit": "%"},
      {"measurement": "pest or weed control at 125 g/ha", "setting": "[2]; [7]", "value": 40, "unit": "%"},
      {"measurement": "pest or weed control at 125 g/ha", "setting": "[3]; [8]", "value": 70, "unit": "%"},
      {"measurement": "pest or weed control at 125 g/ha", "setting": "[4]; [9]", "value": 20, "unit": "%"}
    ]},
    {"smiles": "O=C(Nc1ccccc1F)[C@H]1C(=S)NC[C@@H]1c1ccc(C(F)(F)F)cc1", "note": "(racemic) [Compound 1047]", "values": [
      {"measurement": "pest or weed control at 125 g/ha", "setting": "Kochia (Kochia scoparia); [10]", "value": 0, "unit": "%"},
      {"measurement": "pest or weed control at 500 g/ha", "setting": "Kochia (Kochia scoparia); [11]", "value": 20, "unit": "%"},
      {"measurement": "plant injury at 125 g/ha", "setting": "[1]; [12]", "value": 0, "unit": "%"},
      {"measurement": "pest or weed control at 125 g/ha", "setting": "[2]; [13]", "value": 50, "unit": "%"},
      {"measurement": "pest or weed control at 500 g/ha", "setting": "[2]; [14]", "value": 80, "unit": "%"},
      {"measurement": "pest or weed control at 125 g/ha", "setting": "[3]; postemergence, visual injury on 0 to 100 scale (0 no effect, 100 complete control), approx. 10 d, read-out: Barnyardgrass plant response rating", "value": 40, "unit": "%"},
      {"measurement": "pest or weed control at 500 g/ha", "setting": "[3]; [15]", "value": 80, "unit": "%"},
      {"measurement": "pest or weed control at 125 g/ha", "setting": "[4]; [16]", "value": 0, "unit": "%"},
      {"measurement": "pest or weed control at 500 g/ha", "setting": "[4]; [17]", "value": 50, "unit": "%"}
    ]},
    {"smiles": "Cc1ccc([C@H]2CNC(=O)[C@@H]2C(=O)Nc2ccccc2S(C)(=O)=O)cc1C", "note": "[Compound 1037]", "values": [
      {"measurement": "pest or weed control at 125 g/ha", "setting": "Kochia (Kochia scoparia); [10]", "value": 0, "unit": "%"},
      {"measurement": "pest or weed control at 500 g/ha", "setting": "Kochia (Kochia scoparia); [11]", "value": 20, "unit": "%"},
      {"measurement": "plant injury at 125 g/ha", "setting": "[1]; [12]", "value": 0, "unit": "%"},
      {"measurement": "plant injury at 500 g/ha", "setting": "[1]; 500 g ai/ha, postemergence, visual injury, 0 to 100 scale (0 no effect, 100 complete control), approx. 10 d, read-out: Plant response rating, Wheat", "value": 30, "unit": "%"},
      {"measurement": "pest or weed control at 125 g/ha", "setting": "[2]; [13]", "value": 0, "unit": "%"},
      {"measurement": "pest or weed control at 500 g/ha", "setting": "[2]; [14]", "value": 30, "unit": "%"},
      {"measurement": "pest or weed control at 125 g/ha", "setting": "[3]; [18]", "value": 70, "unit": "%"},
      {"measurement": "pest or weed control at 500 g/ha", "setting": "[3]; [15]", "value": 90, "unit": "%"},
      {"measurement": "pest or weed control at 125 g/ha", "setting": "[4]; [16]", "value": 40, "unit": "%"},
      {"measurement": "pest or weed control at 500 g/ha", "setting": "[4]; [17]", "value": 60, "unit": "%"}
    ]},
    {"smiles": "COc1c(F)ccc([C@H]2CN(C)C(=O)[C@@H]2C(=O)Nc2cccc(F)c2F)c1Cl", "note": "[Compound 893]", "values": [
      {"measurement": "pest or weed control at 125 g/ha", "setting": "Kochia (Kochia scoparia); [5]", "value": 60, "unit": "%"},
      {"measurement": "plant injury at 125 g/ha", "setting": "[1]; [6]", "value": 30, "unit": "%"},
      {"measurement": "pest or weed control at 125 g/ha", "setting": "[2]; [7]", "value": 90, "unit": "%"},
      {"measurement": "pest or weed control at 125 g/ha", "setting": "[3]; [8]", "value": 100, "unit": "%"},
      {"measurement": "pest or weed control at 125 g/ha", "setting": "[4]; [9]", "value": 50, "unit": "%"}
    ]},
    {"smiles": "COc1c(F)ccc([C@H]2CNC(=O)[C@@H]2C(=O)Nc2cccc(F)c2F)c1Cl", "note": "[Compound 882]", "values": [
      {"measurement": "pest or weed control at 125 g/ha", "setting": "Kochia (Kochia scoparia); [5]", "value": 60, "unit": "%"},
      {"measurement": "plant injury at 125 g/ha", "setting": "[1]; [6]", "value": 0, "unit": "%"},
      {"measurement": "pest or weed control at 125 g/ha", "setting": "[2]; [7]", "value": 70, "unit": "%"},
      {"measurement": "pest or weed control at 125 g/ha", "setting": "[3]; [8]", "value": 80, "unit": "%"},
      {"measurement": "pest or weed control at 125 g/ha", "setting": "[4]; [9]", "value": 50, "unit": "%"}
    ]},
    {"smiles": "COc1ccc(CN2CC[C@H](c3ccc(F)cc3)[C@@H](C(=O)Nc3cccc(F)c3F)C2=O)cc1", "note": "[Compound 919]", "values": [
      {"measurement": "pest or weed control at 125 g/ha", "setting": "Kochia (Kochia scoparia); [19]", "value": 0, "unit": "%"},
      {"measurement": "plant injury at 125 g/ha", "setting": "[1]; [20]", "value": 0, "unit": "%"},
      {"measurement": "pest or weed control at 125 g/ha", "setting": "[2]; [21]", "value": 0, "unit": "%"},
      {"measurement": "pest or weed control at 125 g/ha", "setting": "[3]; [18]", "value": 0, "unit": "%"},
      {"measurement": "pest or weed control at 125 g/ha", "setting": "[4]; [22]", "value": 0, "unit": "%"}
    ]},
    {"smiles": "O=C(Nc1cccc(F)c1F)[C@H]1C(=O)N(C2CC2)CC[C@@H]1c1cccc(C(F)(F)F)c1", "note": "[Compound 925]", "values": [
      {"measurement": "pest or weed control at 125 g/ha", "setting": "Kochia (Kochia scoparia); [19]", "value": 0, "unit": "%"},
      {"measurement": "plant injury at 125 g/ha", "setting": "[1]; [20]", "value": 0, "unit": "%"},
      {"measurement": "pest or weed control at 125 g/ha", "setting": "[2]; [21]", "value": 40, "unit": "%"},
      {"measurement": "pest or weed control at 125 g/ha", "setting": "[3]; [18]", "value": 40, "unit": "%"},
      {"measurement": "pest or weed control at 125 g/ha", "setting": "[4]; [22]", "value": 0, "unit": "%"}
    ]}
  ]
}
